Laboratory results reported in PMC3141555, “Neuroprotective effect of a new DJ-1-binding compound against neurodegeneration in Parkinson's disease and stroke model rats” (2011).

T1: DJ-1 (Homo sapiens, UniProt Q99497)
T1 construct: gene PARK7; recombinant DJ-1
T1 sequence (Q99497 2-189): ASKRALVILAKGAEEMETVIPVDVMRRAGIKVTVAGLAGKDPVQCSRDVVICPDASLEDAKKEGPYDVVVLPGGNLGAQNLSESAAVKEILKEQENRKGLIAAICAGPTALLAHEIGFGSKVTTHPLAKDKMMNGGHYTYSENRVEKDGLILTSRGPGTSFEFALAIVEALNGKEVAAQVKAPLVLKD

T2: DJ-1 (human (endogenous in SH-SY5Y)), Q99497
T2 chain: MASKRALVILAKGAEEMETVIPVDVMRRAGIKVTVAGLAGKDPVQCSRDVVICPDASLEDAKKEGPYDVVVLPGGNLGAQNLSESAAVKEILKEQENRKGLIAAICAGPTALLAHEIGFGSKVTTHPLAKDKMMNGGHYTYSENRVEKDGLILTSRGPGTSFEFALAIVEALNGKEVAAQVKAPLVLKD


Key:
DJ-1 = target: T1, DJ-1; test: quartz crystal microbalance (compound fixed on sensor chip, recombinant DJ-1 applied); assay type: binding
[1] = target: T2, DJ-1 (human (endogenous in SH-SY5Y)), …; test: cross-linking; SH-SY5Y cells incubated with 1 uM compound-23 or compound-B for 20 hours, treated with various amounts of H2O2 for 3 hours, then 0.5 mM DSS (or DMSO) for 30 min; extracts analysed by Western blotting with an anti-DJ-1 antibody; settings: remark: other sources report otherwise

| Kd (DJ-1) [nM] | stoichiometry N [1] | Molecule |
| --- | --- | --- |
| 103 | – | COc1cc(C(=O)Nc2ccc(-c3cn4cccc(C)c4n3)cc2)cc(OC)c1OC [compound-23, N-[4-(8-methyl(4-hydroimidazo[1,2-a]pyridin-2-yl))phenyl](3,4,5-trimethoxyphenyl)carboxamide] |
| – | 2 | DJ-1, Q99497 1-189 (natural protein) MASKRALVILAKGAEEMETVIPVDVMRRAGIKVTVAGLAGKDPVQCSRDVVICPDASLEDAKKEGPYDVVVLPGGNLGAQNLSESAAVKEILKEQENRKGLIAAICAGPTALLAHEIGFGSKVTTHPLAKDKMMNGGHYTYSENRVEKDGLILTSRGPGTSFEFALAIVEALNGKEVAAQVKAPLVLKD |
